# Data as given in patent publication US11833185B2, “Anti-neurodegenerative therapeutic, method of manufacture, and use” (UNIVERSITY OF KENTUCKY RESEARCH FOUNDATION, priority 2017, dated 2023).
# Read-outs that look alike come from different tables or passages of the source. Where no end group is shown, it is not given here.
# Columns and labels:
# [1] = test system: Parkinson's disease; conditions: person
# Method: A person presents with current diagnosis of Parkinson's disease with motor complications and responsiveness to levodopa or dopa agonists. They are buccally administered 100 mg at every 12 hours for 180 days. At 1, 90, 180, 270 and 360 days they are tested/retested with a battery of neurological tests including Unified Parkinson's Disease Rating Scale (UPDRS), Time Tests, Hoehn and Yahr (HY) Scale, Clinical Global Impression of Severity (CGIS), Clinical Impression of Severity Index (CISI-PD), Patient Global Impression of Severity (PGIS).
# A person presents with diagnosis of Parkinson's disease. They are administered peptide by intranasal spray at a dosage of 25 mg, daily for 60 days. At 1, 90, 180, 270 and 360 days they are tested/retested with a battery of neurological tests including Unified Parkinson's Disease Rating Scale (UPDRS), Time Tests, Hoehn and Yahr (HY) Scale, Clinical Global Impression of Severity (CGIS), Clinical Impression of Severity Index (CISI-PD), Patient Global Impression of Severity (PGIS).
# [2] = test system: Alzheimer's disease; conditions: person
# [3] = test system: substantia nigra levels of DA, DOPAC, HVA, 5-HT, 5-HIAA, and NE; test: Substantia nigra neurochemistry (RP-HPLC EC) after repeated intranasal administration; assay type: in vivo, normal Fischer 344 rats; conditions: for Turnover ratio 5-HIAA/5-HT / Turnover ratio (HVA + DOPAC)/DA / Turnover ratio DOPAC/DA / Turnover ratio HVA/DA / 5-HIAA / 5-HT / DA / DOPAC / HVA / NE: 5 days a week for 3 weeks, combined left and right substantia nigra, mean; for 5-HIAA / 5-HT / DA / DOPAC / HVA / NE: wet tissue weight; for decrease of NE levels: versus vehicle treated rats
# Method: (§1) Groups of 12, 3 month old Fischer 344 rats were intranasally dosed 50 microliters (4 single 12.5 microliter administrations, 2 per nare, 5 minutes between each nare administration) of either vehicle, 1.1 mg/mL, or 3.5 mg/mL of AV6403 [Leu-Ala-Pro-Ala-Glu-Asp-NH2] (SEQ ID NO: 1) once a day for 5 days a week, for 3 weeks (5 consecutive days of dosing, 2 off days, repeated total of 3 times). Following day 21, rats were euthanized and brain tissue was recovered and sections removed and weighed for neurochemical analysis by Reverse-Phase High Pressure Liquid Chromatography Electrochemical detection (RP-HPLC EC).
# In the SN [TABLE 3], treatment of AV6403 led to about a 13% increase in DOPAC and a 11% reduction of HVA, depending on the dosage, [FIG. 4A-FIG. 4C] resulting in an increase in dopamine turnover (20% [DOPAC/DA] for 3.5 mg/mL dosage; 23% [(HVA+DOPAC)/DA] for 1.1 mg/mL) relative to saline vehicle treated rats [FIG. 5A-FIG. 5B]. Treatment with 1.1 mg/mL AV6403 decreased 5-HT by 10% in the SN, resulting in a 16% increase in serotonin turnover [5-HIAA/5-HT] [TABLE 4]. The higher dosage (3.5 mg/mL AV6403) increased NE levels in the SN by about 23% versus vehicle treated rats, respectively [TABLE 3].
# as §1, with “1.2” for “1.1”, “3.6” for “3.5”, “AV7624 [Glu-Ala-Pro-Phe-Glu-Asp-NH2]” for “AV6403 [Leu-Ala-Pro-Ala-Glu-Asp-NH2] (SEQ ID NO: 1)”, “RP-HPLC EC.” for “Reverse-Phase High Pressure Liquid Chromatography Electrochemical detection (RP-HPLC EC).”
# In the SN [TABLE 7], treatment with 3.6 mg/mL AV7624 led to about a 23%, 22%, and a 6% decrease in DA, DOPAC, and HVA [FIG. 9A-FIG. 9C], relative to saline vehicle treated rats, with minor effects on dopamine turnover [FIG. 10A-FIG. 10B]. Treatment with 3.6 mg/mL AV7624 decreased 5-HT by 20% and 5-HIAA by about 18% in the SN [TABLE 7], resulting in a minor effect on serotonin turnover [TABLE 8]. NE levels in the SN were decreased (17% and 13%) by both dosages (1.2 mg/mL and 3.6 mg/mL) versus vehicle treated rats, respectively [TABLE 7].
# [4] = test system: striatum levels of DA, DOPAC, HVA, 5-HT, 5-HIAA, and NE; test: Striatum neurochemistry (RP-HPLC EC) after repeated intranasal administration; assay type: in vivo, normal Fischer 344 rats; conditions: for Turnover ratio 5-HIAA/5-HT / Turnover ratio (HVA + DOPAC)/DA / Turnover ratio DOPAC/DA / Turnover ratio HVA/DA / 5-HT / 5 HIAA / DA / DOPAC / HVA / NE: 5 days a week for 3 weeks, combined left and right striatum, mean; for 5-HT / 5 HIAA / DA / DOPAC / HVA / NE: wet tissue weight
# Method: as §1
# Dopamine [DA], its major metabolites 3,4-Dihydroxy-Phenylacetic Acid (DOPAC) and Homovanillic Acid (HVA), 5-hydroxytryptamine (5-HT, serotonin), its metabolite 5-hydroxyindoleacetic acid (5-HIAA), and norepinephrine (NE) were measured in the striatum and substantia nigra (SN) for each group. In the striatum [TABLE 1], 1.1 mg/mL dosing of AV6403 led to a 20% and 25% reduction of DA and HVA levels [FIG. 1A-FIG. 1C], respectively, resulting in an increase in dopamine turnover (22% [DOPAC/DA] and 16% [[(HVA+DOPAC)/DA]), relative to saline vehicle treated rats [FIG. 2A-FIG. 2B]. […] NE levels were reduced in the striatum with about a 36% reduction for AV6403 1.1 mg/mL dosage versus vehicle [TABLE 1].
# as §1, with “1.2” for “1.1”, “3.6” for “3.5”, “AV7624 [Glu-Ala-Pro-Phe-Glu-Asp-NH2]” for “AV6403 [Leu-Ala-Pro-Ala-Glu-Asp-NH2] (SEQ ID NO: 1)”, “RP-HPLC EC.” for “Reverse-Phase High Pressure Liquid Chromatography Electrochemical detection (RP-HPLC EC).”
# DA, DOPAC, HVA, 5-HT, 5-HIAA, and NE were measured in the striatum and SN for each group. In the striatum [TABLE 5], 3.6 mg/mL dosing of AV7624 led to an approximate 18%, 39%, and 30% reduction of DA, DOPAC, and HVA levels [FIG. 6A-FIG. 6C], respectively, resulting in an about 18% decrease in dopamine turnover ([DOPAC/DA] and [(HVA+DOPAC)/DA]), relative to saline vehicle treated rats [FIG. 7A-FIG. 7B]. […] NE levels were reduced in the striatum in a dose dependent manner, with about a 32% reduction for the AV7624 3.6 mg/mL dosage versus vehicle [TABLE 5]
# [5] = 3.6 mg/mL intranasal, SN, relative to saline vehicle treated rats
# [6] = 3.6 mg/mL intranasal, striatum, relative to saline vehicle treated rats
# [7] = 3.6 mg/mL repeated intranasal, striatum
substance,measurement,setting,value
Cyclo (cys-Leucine-Glycine-Proline-Phenylalanine-Serine-Glutamate-cys [SEQ ID NO: 5],additional test loss from day 1 over 360 days,[1]; buccal 100 mg every 12 hours for 180 days,minimal to no additional test loss
D-Glutamate-Alanine-Proline-Phenylalanine-D-Alanine-Glycine-NH2 [SEQ ID NO: 7],cognitive loss from day 1 over 360 days,"[2]; Alzheimer's Disease, buccal 25 mg daily for 60 days",minimal to no cognitive loss
Glu-Ala-Pro-Phe-Glu-Asp-NH2 (EAPFED-NH2) [AV7624],Turnover ratio 5-HIAA/5-HT,[3]; 1.2 mg/mL intranasal,0.58
same,Turnover ratio (HVA + DOPAC)/DA,[3]; 1.2 mg/mL intranasal,0.34
same,Turnover ratio DOPAC/DA,[3]; 1.2 mg/mL intranasal,0.24
same,Turnover ratio HVA/DA,[3]; 1.2 mg/mL intranasal,0.10
same,5-HIAA,[3]; 1.2 mg/mL intranasal,886 ng/g
same,5-HT,[3]; 1.2 mg/mL intranasal,1546 ng/g
same,DA,[3]; 1.2 mg/mL intranasal,1918 ng/g
same,DOPAC,[3]; 1.2 mg/mL intranasal,472 ng/g
same,HVA,[3]; 1.2 mg/mL intranasal,184 ng/g
same,NE,[3]; 1.2 mg/mL intranasal,727 ng/g
same,decrease of NE levels,"[3]; 1.2 mg/mL intranasal, SN",17%
same,Turnover ratio 5-HIAA/5-HT,[3]; 3.6 mg/mL intranasal,0.57
same,Turnover ratio (HVA + DOPAC)/DA,[3]; 3.6 mg/mL intranasal,0.35
same,Turnover ratio DOPAC/DA,[3]; 3.6 mg/mL intranasal,0.22
same,Turnover ratio HVA/DA,[3]; 3.6 mg/mL intranasal,0.13
same,5-HIAA,[3]; 3.6 mg/mL intranasal,737 ng/g
same,5-HT,[3]; 3.6 mg/mL intranasal,1251 ng/g
same,DA,[3]; 3.6 mg/mL intranasal,1523 ng/g
same,DOPAC,[3]; 3.6 mg/mL intranasal,376 ng/g
same,HVA,[3]; 3.6 mg/mL intranasal,177 ng/g
same,NE,[3]; 3.6 mg/mL intranasal,767 ng/g
same,decrease of 5-HIAA,"[3]; 3.6 mg/mL intranasal, SN",about 18%
same,decrease of 5-HT,"[3]; 3.6 mg/mL intranasal, SN",20%
same,effect on serotonin turnover,"[3]; 3.6 mg/mL intranasal, SN",minor effect
same,effects on dopamine turnover,"[3]; 3.6 mg/mL intranasal, SN",minor effects
same,decrease in DA,[3]; [5],~23%
same,decrease in DOPAC,[3]; [5],~22%
same,decrease in HVA,[3]; [5],~6%
same,decrease of NE levels,"[3]; 3.6 mg/mL intranasal, SN",13%
same,Turnover ratio 5-HIAA/5-HT,[4]; 1.2 mg/mL intranasal,1.15
same,Turnover ratio (HVA + DOPAC)/DA,[4]; 1.2 mg/mL intranasal,0.38
same,Turnover ratio DOPAC/DA,[4]; 1.2 mg/mL intranasal,0.28
same,Turnover ratio HVA/DA,[4]; 1.2 mg/mL intranasal,0.09
same,5-HT,[4]; 1.2 mg/mL intranasal,610 ng/g
same,5 HIAA,[4]; 1.2 mg/mL intranasal,674 ng/g
same,DA,[4]; 1.2 mg/mL intranasal,13521 ng/g
same,DOPAC,[4]; 1.2 mg/mL intranasal,3906 ng/g
same,HVA,[4]; 1.2 mg/mL intranasal,1253 ng/g
same,NE,[4]; 1.2 mg/mL intranasal,83 ng/g
same,Turnover ratio 5-HIAA/5-HT,[4]; 3.6 mg/mL intranasal,1.05
same,Turnover ratio (HVA + DOPAC)/DA,[4]; 3.6 mg/mL intranasal,0.33
same,Turnover ratio DOPAC/DA,[4]; 3.6 mg/mL intranasal,0.24
same,Turnover ratio HVA/DA,[4]; 3.6 mg/mL intranasal,0.09
same,5-HT,[4]; 3.6 mg/mL intranasal,487 ng/g
same,5 HIAA,[4]; 3.6 mg/mL intranasal,499 ng/g
same,DA,[4]; 3.6 mg/mL intranasal,10762 ng/g
same,DOPAC,[4]; 3.6 mg/mL intranasal,2478 ng/g
same,HVA,[4]; 3.6 mg/mL intranasal,915 ng/g
same,NE,[4]; 3.6 mg/mL intranasal,67 ng/g
same,decrease in dopamine turnover ([DOPAC/DA] and [(HVA+DOPAC)/DA]),[4]; [6],about 18%
same,reduction of DA levels,[4]; [6],about 18%
same,reduction of DOPAC levels,[4]; [6],~39%
same,reduction of HVA levels,[4]; [6],~30%
same,reduction of NE levels,"[4]; 3.6 mg/mL intranasal, striatum, versus vehicle",~32%
same,effect on turnover [5-HIAA/5-HT],[4]; [7],small effect
same,reduction of 5-HIAA levels,[4]; [7],~30%
same,reduction of 5-HT levels,[4]; [7],~28%
same,"effects on DA, 5-HT and their metabolites","[4]; lower dosage (1.2 mg/mL) intranasal, striatum",less robust effects
Glutamate-deuterated Lysine-Proline-D-Phenylalanine-deuterated Leucine-NH2 [SEQ ID NO: 8],additional UPDRS loss from day 1 over 360 days,[1]; intranasal spray 25 mg daily for 60 days,minimal to no additional UPDRS loss
Leucine-Glycine-Proline-Phenylalanine-Serine-Glutamate,cognitive loss from day 1 over 360 days,"[2]; mild cognitive impairment Alzheimer's disease, intranasal 5 mg once per day for 360 days",minimal to no cognitive loss
Tryptophan-D-Alanine-Proline-D-Lysine-Asparagine-NH2 [SEQ ID NO: 6],cognitive loss from day 1 over 360 days,"[2]; Alzheimer's disease, intranasal 100 mg once a week for 30 days",minimal to no cognitive loss
